{"source": "patent US9445999B2", "about": "“Process for preparing carrier particles for dry powders for inhalation” (CHIESI FARMACEUTICI S.p.A., priority 2010, dated 2016)", "key": {"[1]": {"test": "Particle size distribution (PSD) by laser diffraction with a Malvern apparatus", "format": "physicochemical", "conditions": "lactose 90-150 microns + 0.5% w/w MgSt, CYCLOMIX at given speed and time; mean of three determinations", "description": "In general terms, the particle size of the particles is quantified by measuring a characteristic equivalent sphere diameter, known as volume diameter, by laser diffraction.\nIn the present application, the particle size interval is expressed in terms of […]. Otherwise, the particle size distribution is expressed in terms of: i) the volume median diameter (VMD) which corresponds to the diameter of 50 percent by weight or volume respectively, of the particles, e.g. d(v0.5); and ii) the volume diameter (VD) in microns of 10% and 90% of the particles, respectively, e.g. d(v0.1) and d(v0.9).\niv) the particle size distribution (PSD) by laser diffraction with a Malvern apparatus; the water contact angle by the sessile drop method wherein the powder is in the form of a disc obtained by compaction (compressed powder disc method) according to the procedure reported above in the description;\nThe results are expresses as mean of three determinations. In Table 2, the water contact angle values and the corresponding extent of surface coating calculated from the Cassie and Baxter equation are also reported. Said equation was applied to the experimental values of the penultimate column of Table 2 using the reference values for magnesium state alone and alpha-lactose monohydrate alone. The variability in terms of S.D. of the experimental values is always less than ±10%, typically of ±5%."}, "[2]": {"test": "Water contact angle by sessile drop (compressed powder disc method); extent of surface coating from the Cassie and Baxter equation", "format": "physicochemical", "conditions": "0.5% w/w MgSt carriers", "description": "The extent to which magnesium stearate coats the surface of the lactose particles may be determined by first measuring the water contact angle, and then applying the equation known in the literature as Cassie and Baxter, cited at page 338 of Colombo I et al., Il Farmaco, 1984, 39(10), pp. 328-341, which is incorporated herein by reference in its entirety, and reported below. cos θmixture=fMgSt cos θMgst+flactore cos θlactose where\nfMgst and flactore are the surface area fractions of magnesium stearate and of lactose;\nθMgSt is the water contact angle of magnesium stearate;\nθlactose is the water contact angle of lactose; and\nθmixture are the experimental contact angle values. […]\nIf a fully automated procedure is not available, the base (b) and the height (h) of the drop are measured on the display using a mobile reading scale, then the water contact angles (WCA) are calculated by applying the following formula: WCA=[arctg2h/b]×2×180/[…]\nTypically the values are calculated as a mean of three different measurements taken at room temperature. […]\nThe results are expresses as mean of three determinations. In Table 2, the water contact angle values and the corresponding extent of surface coating calculated from the Cassie and Baxter equation are also reported. […]"}}, "data": [{"smiles": "O.OC[C@H]1O[C@@H](O[C@H]2[C@H](O)[C@@H](O)[C@@H](O)O[C@@H]2CO)[C@H](O)[C@@H](O)[C@H]1O", "note": "[α-lactose monohydrate, alpha-lactose monohydrate]", "values": [{"measurement": "PSD d(v0.1)", "setting": "[1]", "result": 96.4}, {"measurement": "PSD d(v0.5)", "setting": "[1]", "result": 132.2}, {"measurement": "PSD d(v0.9)", "setting": "[1]", "result": 182.3}, {"measurement": "Water Contact Angle", "setting": "[2]; compressed powder disc, sessile drop", "result": 8.35, "unit": "E"}, {"measurement": "Extent of Surface Coating", "setting": "[2]; calculated from the Cassie and Baxter equation", "result": 0, "unit": "%"}]}]}
